Among the test systems are SNB-19 CNS; HCT-15 colon; NCI-H460 lung; UO-31 renal; A549 NSCLC; MCF7 breast; U251 CNS; UACC-62 melanoma; NCI/ADR-RES ovarian; HOP-62 NSCLC.
Holding throughout (test): NCI-60 cell line screen, 48 h

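Cells were grown in 96-well plates and exposed to each compound for 48 hours at five concentrations; endpoints were interpolated linearly between bracketing concentrations, or set to the highest concentration if not reached. GI50 = concentration required for 50% inhibition of growth. TGI: concentration producing complete growth inhibition.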

`CC(=O)OC1=CC2=CC[C@H]3[C@@H]4CCC(=O)[C@@]4(C)CC(=O)[C@]3(S)[C@@]2(C)CC1`: the TGI with SNB-19 CNS is above 100 µM; with HCT-15 colon, above 100 µM; in the experiment on NCI-H460 lung it was 69.8 µM; in the experiment on UO-31 renal, above 100 µM; in the experiment on A549 NSCLC it was above 100 µM; in the experiment with MCF7 breast, above 100 µM. Moreover, the TGI is above 100 µM in the experiment with U251 CNS, 93.1 µM in the experiment on UACC-62 melanoma, above 100 µM in the experiment on NCI/ADR-RES ovarian and above 100 µM in the experiment on HOP-62 NSCLC.

Regarding `CC(C)(C)c1ccc(OC(=O)Nc2ccc(O)c(C(=O)O)c2)cc1`, the TGI with SNB-19 CNS, with HCT-15 colon, in the experiment on NCI-H460 lung, in the experiment with A549 NSCLC, in the experiment on MCF7 breast and with U251 CNS was above 100 µM throughout. The TGI with UACC-62 melanoma, in the experiment on NCI/ADR-RES ovarian and in the experiment with HOP-62 NSCLC was above 100 µM throughout.

Regarding `COc1ccc(S(=O)(=O)NC2=NCCN2C(=S)SN2CCn3c2nsc3=S)cc1`, the GI50 in the experiment with SNB-19 CNS was 32.9 µM; with HCT-15 colon, 20.8 µM; with NCI-H460 lung, 17.1 µM; in the experiment on UO-31 renal, 1.61 µM; with A549 NSCLC, 23.4 µM; in the experiment with MCF7 breast, 12.4 µM. The GI50 in the experiment with U251 CNS is 18.8 µM; in the experiment with UACC-62 melanoma, 12.2 µM; in the experiment on NCI/ADR-RES ovarian it was 32.5 µM; in the experiment with HOP-62 NSCLC, 18.9 µM. The TGI in the experiment on SNB-19 CNS was above 100 µM; in the experiment on HCT-15 colon, 58.9 µM; with NCI-H460 lung, 44.2 µM; with UO-31 renal it was 3.41 µM; with A549 NSCLC it was 79.4 µM; in the experiment on MCF7 breast it was 27.2 µM. For the same molecule, the TGI in the experiment on U251 CNS is 40.5 µM; with UACC-62 melanoma, 27.4 µM; in the experiment on NCI/ADR-RES ovarian, above 100 µM; in the experiment with HOP-62 NSCLC it was 39.2 µM.

For the molecule `C=C1C(=O)O[C@H]2[C@H]1CC/C(COC(=O)CCSCCC(=O)OC/C1=C/CC[C@@]3(C)O[C@H]3[C@H]3OC(=O)C(=C)[C@@H]3CC1)=C\CC[C@@]1(C)O[C@@H]21`, the GI50 in the experiment with SNB-19 CNS was 2.43 µM; with HCT-15 colon, 1.11 µM; in the experiment on NCI-H460 lung, 1.86 µM; with UO-31 renal it was 1.07 µM; with A549 NSCLC it was 2.54 µM; in the experiment with MCF7 breast, 0.418 µM. For the same molecule, the GI50 was 1.39 µM in the experiment with U251 CNS, 1.7 µM in the experiment on UACC-62 melanoma, 3.21 µM with NCI/ADR-RES ovarian and 2.36 µM in the experiment on HOP-62 NSCLC. Also, the TGI in the experiment on SNB-19 CNS is 7.29 µM; with HCT-15 colon, 2.46 µM; in the experiment with NCI-H460 lung, 4.21 µM; in the experiment with UO-31 renal it was 2.27 µM; in the experiment with A549 NSCLC, 7.56 µM; in the experiment with MCF7 breast it was 1.86 µM. Besides, the TGI with U251 CNS came out at 3.45 µM; with UACC-62 melanoma, 3.61 µM; with NCI/ADR-RES ovarian, 11 µM; with HOP-62 NSCLC, 7.94 µM.

In the case of `N[C@@H]1C(=O)N2C(C(=O)OC(c3ccccc3)c3ccccc3)=C(CCl)CS[C@H]12`, the GI50 was 66.7 µM in the experiment with SNB-19 CNS; 37.9 µM in the experiment on HCT-15 colon; 34 µM in the experiment on NCI-H460 lung; 47.3 µM with UO-31 renal; above 67.5 µM in the experiment on A549 NSCLC; 33.6 µM in the experiment with MCF7 breast. Moreover, the GI50 in the experiment with U251 CNS was 29.2 µM; with UACC-62 melanoma it was 42.7 µM; with NCI/ADR-RES ovarian it was 38.2 µM; with HOP-62 NSCLC it was 63.4 µM. Besides, the TGI with SNB-19 CNS, with HCT-15 colon, with NCI-H460 lung, with UO-31 renal, with A549 NSCLC and with MCF7 breast was above 100 µM throughout. The TGI with U251 CNS was above 78.9 µM; with UACC-62 melanoma it was above 91.2 µM; in the experiment on NCI/ADR-RES ovarian, above 100 µM; in the experiment with HOP-62 NSCLC, above 100 µM.

For the molecule `O=C(O)C1CC2(C1)CC(C(=O)O)C2` (centres undefined), the TGI in the experiment with SNB-19 CNS, with HCT-15 colon, with NCI-H460 lung, in the experiment on UO-31 renal, in the experiment with A549 NSCLC and with MCF7 breast was above 100 µM in each case. In addition, the TGI in the experiment on U251 CNS, in the experiment on UACC-62 melanoma, in the experiment on NCI/ADR-RES ovarian and in the experiment with HOP-62 NSCLC was above 100 µM in each case.

In the case of `Nc1nc(N)c(C=Nc2ccc(Br)cc2)c(Nc2ccc(Br)cc2)n1`, the GI50 was 12.4 µM in the experiment on SNB-19 CNS; 7.44 µM in the experiment on HCT-15 colon; 4.39 µM with NCI-H460 lung; 6.55 µM with UO-31 renal; 12.4 µM with A549 NSCLC; 2.57 µM in the experiment on MCF7 breast. For the same molecule, the GI50 in the experiment with U251 CNS is 12 µM; in the experiment on UACC-62 melanoma, 12.1 µM; with NCI/ADR-RES ovarian, 5.54 µM; with HOP-62 NSCLC, 10.5 µM. Further, the TGI in the experiment with SNB-19 CNS worked out at 32.4 µM; in the experiment with HCT-15 colon, 34.4 µM; in the experiment with NCI-H460 lung, 20.1 µM; with UO-31 renal it was 28.1 µM; in the experiment on A549 NSCLC, 29.6 µM; in the experiment with MCF7 breast, 15.1 µM. The TGI in the experiment on U251 CNS amounted to 30.1 µM; with UACC-62 melanoma it was 24.4 µM; in the experiment on NCI/ADR-RES ovarian, 26.3 µM; in the experiment with HOP-62 NSCLC, 22.5 µM.

As to `Oc1ccc(O)c(-c2cc(-c3ccc(Cl)cc3)nn2-c2ccccc2)c1`, the GI50 with HCT-15 colon was 12.5 µM; with NCI-H460 lung it was 3.77 µM; in the experiment on UO-31 renal, 12.2 µM; in the experiment with A549 NSCLC, 7.56 µM; in the experiment on MCF7 breast it was 3.88 µM; in the experiment on UACC-62 melanoma it was 2.63 µM. Further, the TGI in the experiment with HCT-15 colon is 25.5 µM; with NCI-H460 lung it was above 100 µM; with UO-31 renal, above 100 µM; with A549 NSCLC, 31 µM; in the experiment with MCF7 breast it was above 100 µM; in the experiment on UACC-62 melanoma, 7.88 µM. The molecule further yielded a TGI in the experiment on NCI/ADR-RES ovarian of 25.3 µM.

For the molecule `N#Cc1c(Br)n(C2OC(CO)C(O)C2O)c2ncnc(N)c12` (centres undefined), the GI50 is 4.35 µM with SNB-19 CNS; 0.695 µM with HCT-15 colon; 0.574 µM in the experiment on NCI-H460 lung; 2.25 µM in the experiment on UO-31 renal; 1.13 µM in the experiment with A549 NSCLC; 0.631 µM with MCF7 breast. Further, the GI50 in the experiment on U251 CNS is 1.85 µM; in the experiment on UACC-62 melanoma, 2.64 µM; with NCI/ADR-RES ovarian it was 1.43 µM; in the experiment on HOP-62 NSCLC it was 4.09 µM. Moreover, the TGI with SNB-19 CNS is above 75.9 µM; with HCT-15 colon, 46.3 µM; in the experiment with NCI-H460 lung, 4.56 µM; in the experiment with UO-31 renal, 59.5 µM; in the experiment with A549 NSCLC, above 27 µM; in the experiment on MCF7 breast, 4.01 µM. For the same molecule, the TGI with U251 CNS is above 100 µM; in the experiment on UACC-62 melanoma it was 6.09 µM; with NCI/ADR-RES ovarian, 52.5 µM; with HOP-62 NSCLC it was above 100 µM.

Take `Brc1ccc2[nH]cc(-c3nc(-c4c[nH]c5ncccc45)cs3)c2c1`: the GI50 in the experiment with SNB-19 CNS is 5.29 µM; in the experiment on HCT-15 colon, 2.41 µM; in the experiment with NCI-H460 lung it was 3.12 µM; in the experiment with UO-31 renal, 1.16 µM; in the experiment on A549 NSCLC, 3.2 µM; with MCF7 breast, 2.57 µM. Besides, the GI50 in the experiment with U251 CNS was 3.37 µM; in the experiment with UACC-62 melanoma it was 3.64 µM; in the experiment with NCI/ADR-RES ovarian it was 3.38 µM; in the experiment on HOP-62 NSCLC, 3.76 µM. The TGI in the experiment with SNB-19 CNS was 19.8 µM; with HCT-15 colon, 6.86 µM; in the experiment on NCI-H460 lung, 10.9 µM; in the experiment with UO-31 renal it was 13.1 µM; with A549 NSCLC it was 16.3 µM; in the experiment on MCF7 breast, 13.7 µM. Also, the TGI with U251 CNS is 12.8 µM; in the experiment with UACC-62 melanoma it was 16.6 µM; in the experiment with NCI/ADR-RES ovarian, 26.1 µM; in the experiment on HOP-62 NSCLC, 17 µM.

Take `Cc1ccc(/C=C2\CN(C(=O)C(Cl)Cl)C/C(=C\c3ccc(C)cc3)C2=O)cc1`: the GI50 in the experiment on SNB-19 CNS is 0.286 µM; with HCT-15 colon it was 0.185 µM; in the experiment on UO-31 renal, 0.158 µM; in the experiment with A549 NSCLC, 0.293 µM; with MCF7 breast, 0.0546 µM; with U251 CNS, 0.143 µM. Further, the GI50 in the experiment on UACC-62 melanoma was 0.237 µM; in the experiment on NCI/ADR-RES ovarian it was 0.341 µM; with HOP-62 NSCLC, 0.298 µM. Also, the TGI came to 1.03 µM in the experiment on SNB-19 CNS; 0.638 µM with HCT-15 colon; 0.308 µM in the experiment with UO-31 renal; 0.836 µM in the experiment with MCF7 breast; 0.334 µM in the experiment on U251 CNS; 0.632 µM in the experiment with UACC-62 melanoma. In the experiment on HOP-62 NSCLC, this molecule returned a TGI of 1.28 µM.

As to `COC1=C(C)C(=O)c2c(c(CCCl)c3n2CCC3O)C1=O` (centres undefined), the GI50 with SNB-19 CNS is 0.407 µM; with HCT-15 colon, 0.22 µM; in the experiment with NCI-H460 lung, 0.178 µM; in the experiment with UO-31 renal, 0.545 µM; in the experiment on MCF7 breast, 0.125 µM; in the experiment with U251 CNS it was 0.36 µM. Further, the GI50 with UACC-62 melanoma was 0.319 µM; with NCI/ADR-RES ovarian it was 0.872 µM; in the experiment with HOP-62 NSCLC, 0.235 µM. Further, the TGI in the experiment with SNB-19 CNS was 13.6 µM; in the experiment with HCT-15 colon, 4.4 µM; with NCI-H460 lung, 2.79 µM; in the experiment on UO-31 renal it was 2.42 µM; with MCF7 breast, 1.9 µM; in the experiment on U251 CNS, 11.9 µM. The values for the TGI with UACC-62 melanoma, in the experiment on NCI/ADR-RES ovarian and with HOP-62 NSCLC were 1.28 µM, 7.61 µM and 1.83 µM, respectively.

`Cc1cn(C2C=CC(CO)O2)c(=O)[nH]c1=O` (centres undefined): the TGI with SNB-19 CNS, in the experiment with HCT-15 colon, with UO-31 renal, in the experiment on A549 NSCLC, in the experiment with MCF7 breast and with U251 CNS was above 1000 µM each time. Moreover, the TGI with UACC-62 melanoma, with NCI/ADR-RES ovarian and with HOP-62 NSCLC was above 1000 µM in each case.

In the case of `COC(=O)C(=CNC(N)=O)C(=O)OC`, the TGI in the experiment with SNB-19 CNS, with HCT-15 colon, in the experiment on NCI-H460 lung, in the experiment on UO-31 renal, with A549 NSCLC and with MCF7 breast was above 100 µM each time. In addition, the TGI in the experiment on UACC-62 melanoma, in the experiment on NCI/ADR-RES ovarian and in the experiment on HOP-62 NSCLC was above 100 µM each time.
